Reference: patent US20240424010A1, “NICOTINAMIDE RIBOSIDE TRIOLEATES CHLORIDE, COMPOSITIONS CONTAINING THIS COMPOUND, AND METHODS OF MAKING AND USING THIS COMPOUND” (SOCIETE DES PRODUITS NESTLE S.A., priority 2021, published 2024)
“Also recorded” adds a separate entry of the source.

What was measured:
Type in all cases: physicochemical
[1] = Solubility of NRTOCl in water and in canola, corn and MCT oil
Description: 2154 mg of canola oil was added to a 15 mL falcon tube containing 380 mg of NRTOCl. Then, the tube was placed in a water bath and was shaken at around 35° C. until NRTOCl was completely dissolved in canola oil. After dissolving NRTOCl in canola oil, the sample was kept at room temperature for the next studies. […] Although NRTOCl is a quaternary ammonium salt, it was not dissolved in water due to the existence of three groups of oleate fatty ester in its structure. Therefore, for the stability study of NRTOCl, this compound was dispersed in DI water using 1% ethanol as a cosolvent. For this purpose, 15 mg of NRTOCl was dissolved in 0.15 ml of ethanol (1%) and then 14.85 ml of DI water was added to the mixture and gently shaken. […] Although the average size of NRTOCl in this sample was 192 nm, the images of TEM disclosed smaller particles with around 50 nm and oval and spherical shapes with aspect ratio close to unity (FIGS. 10A-10C). In the nanoparticles, the NRTOCl structures are stacked on top of each other layer-by-layer. The highly positive charge of NRTO makes the nanoparticles stable in the aqueous phase.

[2] = Hydrolysis stability of NRTOCl and NRCl oil-in-water emulsions and NRCl in water at 35° C. for 26 days; conditions: 35° C., 26 days; for times more stable than NR(Cl) in emulsion: canola oil-in-water emulsion with sodium caseinate
Description: The emulsion was prepared using 480 mg of oil stock containing 15 wt. % NRTOCl in canola oil and an aqueous phase (14.52 g) of Na-caseinate (2 wt. %), KCl (0.3 wt. %), NaCl (0.1 wt. %), CaCl2 (0.2 wt. %) and NaN3 (0.01 wt. %).
The emulsion was-prepared using 480 mg of oil stock containing 15 wt. % NRTOCl in canola oil and 0.025 g of lecithin. The aqueous phase (14.5 g) contained Na-caseinate (2 wt. %), KC (0.3 wt. %), NaCl (0.1 wt. %), CaCl2 (0.2 wt. %) and NaN3 (0.01 wt. %).
The emulsion was-prepared using 480 mg of oil stock containing 15 wt. % NRTOCl in canola oil and an aqueous phase (14.52 g) of polysorbate 80 (Tween 80) (2 wt. %).
The emulsion was prepared using around 480 mg of canola oil in an aqueous phase (14.52 g) of NRCl (19 mg), Na-caseinate (2 wt. %), KCl (0.3 wt. %), NaCl (0.1 wt. %), CaCl2 (0.2 wt. %) and NaN3 (0.01 wt. %).
After each specific time of stability for NRTOCl and NRCl emulsions, 1.5 mL of each emulsion was centrifuged (14,000 rpm) for 20 minutes at room temperature.
Since NRTOCl is a very hydrophobic compound, to evaluate its stability in oil phase, an emulsion system was used to study the stability of NRTOCl as a function of time. For this purpose, a 15% w/w solution of NRTOCl in canola oil was used for making different emulsions with Na-caseinate, Tween 80 and lecithin as the emulsifiers (2 wt. %) at room temperature.
When Na-caseinate was used as an emulsifier, the aqueous phase must be a solution of NaCl (0.1 wt. %), CaCl2 (0.2 wt. %) and KCl (0.3 wt. %) because caseinate anion with minus charge and NRTO with positive charge immediately aggregated in DI water. The total oil phase in these emulsions were 3.2 wt. %, and the concentration of NRTOCl in total volume of each emulsion (15 mL) was 4.4 mM. In the emulsions that used Na-caseinate as an emulsifier, NaN3 (0.01 wt. %) was added to prevent the growth of bacteria. When the NRTOCl emulsion was made by 2 wt. % Na-caseinate, its average size and zeta potential in this emulsion (Cas emulsion) were 1020 nm and −14.4 mV respectively.
After making NRTOCl emulsions, a NRCl in canola oil-in-water emulsion was attempted as a control experiment using 3.2% canola oil. The aqueous phase was a solution of Na-caseinate (2 wt. %), NaCl (0.1 wt. %), CaCl2 (0.2 wt. %), KCl (0.3 wt. %) and NaN3 (0.01 wt. %). The concentration of NRCl in total volume (15 mL) of this emulsion was 4.4 mM. Moreover, 15 mL of NRCl solution in DI water was prepared with 4.4 mM concentration as the other control experiment. After preparing three NRTOCl emulsions and two control experiment samples, hydrolysis stability of each sample was studied at 35° C. for 26 days (FIG. 14). The rate of degradation was measured by determination of the released nicotinamide from each sample. […]

[3] = Hydrolysis stability of NRTOCl emulsions and NRCl in water at room temperature for 42 days
Description: After each specific time of stability for NRTOCl and NRCl emulsions, 1.5 mL of each emulsion was centrifuged (14,000 rpm) for 20 minutes at room temperature. […] However, during this time of stability study, 52.0% NR was intact in water at room temperature. […] During this time, these emulsions were stable without visible phase separation. A little increase in the average size of the NRTO droplets occurred in these emulsions, so that in Cas emulsion, the average size increased from 1020 nm to 1281 nm, and in Cas-Lec emulsion, this parameter increased from 1012 nm to 1106 nm.

appearance of 15 wt. % solution in canola oil during storage ([1]; 15 wt. % NRTOCl in canola oil, room temperature): stable and clear without any sediment | solubility in canola oil ([1]; canola oil): easily dissolved | solubility in canola, corn and MCT oil ([1]; room temperature): easily dissolved | times more stable than NR(Cl) in emulsion [2]: 213 times | times more stable than NR(Cl) in emulsion ([2]; listed as NRTO): about 213 times | remaining amount after 26 days in emulsion ([2]; canola oil-in-water emulsion, 4.4 mM): 93.7% | released NR from NRTO (hydrolysis of ester groups) ([3]; all NRTO stability conditions): no released NR | hydrolysis of NRTO after 42 days ([3]; canola oil-in-water emulsion (sodium caseinate), room temperature, 42 days): 5%
SMILES: CCCCCCCC/C=C\CCCCCCCC(=O)OC[C@H]1O[C@@H]([n+]2cccc(C(N)=O)c2)[C@H](OC(=O)CCCCCCC/C=C\CCCCCCCC)[C@@H]1OC(=O)CCCCCCC/C=C\CCCCCCCC.[Cl-] [NRTOCl, nicotinamide riboside trioleates chloride]
solubility in water ([1]; water): not soluble in water; also recorded: not dissolved; also recorded: water insoluble
